Data taken from patent publication US20240208997A1, “CYCLIC BENZIMIDAZOLE DERIVATIVES AS CGAS INHIBITORS” (Boehringer Ingelheim International GmbH, priority 2022, published 2024).

Molecular target: cGAS (Homo sapiens, UniProt Q8N884)
Assay: Human cGAS enzyme assay (hcGAS IC50, in vitro), cGAMP formation by RapidFire MS
Assay type: biochemical
Set-up: HumancGAS (amino acid 1-522) with an N-terminal 6×-His-tag and SUMO-tag; 6xHis (N); SUMO (N); made in house; host or cells: E. coli BL21(DE3) pLysS
Details: Table 1; 45 bp dsDNA-activated enzyme
Protocol: 6.1 Method: Human cGAS Enzyme Assay (hcGAS IC50 (In Vitro))
Human cGAS enzyme was incubated in the presence of a 45 base pair double stranded DNA to activate the enzyme and GTP and ATP as substrates. Compound activity was determined by measuring the effect of compounds on the formation of the product of the enzyme reaction, cGAMP, which is measured by a mass spectrometry method.
HumancGAS (amino acid 1-522) with an N-terminal 6×-His-tag and SUMO-tag was expressed in E. coli BL21(DE3) pLysS (Novagen) cells for 16 h at 18° C. Cells were lysed in buffer containing 25 mM Tris (pH 8), 300 mM NaCl, 10 mM imidazole, 10% glycerol, protease inhibitor cocktail (cOmplete™, EDTA-free, Roche) and DNase (5 μg/mL). […] Purified protein was concentrated to 1.7 mg/mL and stored at −80° C.
Compounds were delivered in 10 mM DMSO solution, serially diluted and transferred to the 384 well assay plate (Greiner #781201) using an Echo acoustic dispenser. Typically, 8 concentrations were used with the highest concentration at 10 μM in the final assay volume followed by ^˜1:5 dilution steps. DMSO concentration was set to 1% in the final assay volume. The 384 well assay plate contained 22 test compounds (column 1-22), and DMSO in column 23 and 24.
After the compound transfer, 15 μL of the enzyme-DNA-working solution (12 nM cGAS, 0.32 μM 45base pair DNA in assay buffer, 10 mM Tris pH 7.5/10 mM KCl/5 mM MgCl2/1 mM DTT) were added to each well from column 1-23 via a MultiDrop Combi dispenser. In column 24, 15 μl of assay buffer without enzyme/DNA were added as a low control.
The plates were then pre-incubated for 60 min at room temperature.
Following that, 10 μL of GTP (ThermoFisher #R0461)-ATP (Promega #V915B) mix in assay buffer were added to the assay plate (columns 1-24, 30 μM final concentration each) using a Multidrop Combi.
The plates were incubated again for 90 min at room temperature.
Following the incubation, the reaction was stopped by 80 μL of 0,1% formic acid in assay buffer containing 5 nM cyclic-di-GMP (Sigma #SML1228) used as internal standard for the mass spectrometry. The total volume/well was 105 μL.
The plates were centrifuged at 4000 rpm, 4° C., for 5 min.
The RapidFire autosampler was coupled to a binary pump (Agilent 1290) and a Triple Quad 6500 (ABSciex, Toronto, Canada). […] Aspiration time: 250 ms; Load time: 3000 ms; Elute time: 3000 ms; Wash volume: 500 μL.
The MS was operated in positive ion mode with HESI ion source, with a source temperature of 550 C, curtain gas=35, gas 1=65, and gas 2=80. Unit mass resolution in SRM mode. The following transitions and MS parameters (DP: declustering potential and CE: collision energy) for cGAMP and DicGMP were determined:
Internal standard: cyclic-di-GMP at 690.1/540, DP=130, CE=30.
The formation of cGAMP was monitored and evaluated as ratio to cyclic-di-GMP.
Data Evaluation and Calculation:
For data evaluation and calculation, the measurement of the low control was set as 0% control and the measurement of the high control was set as 100% control. The IC50 values were calculated using the standard 4 parameter logistic regression formula. Calculation: [y=(a−d)/(1+(x/c)^b)+d], a=low value, d=high value; x=conc M; c=1C50 M; b=slope

Chain of cGAS (Q8N884 whole entry): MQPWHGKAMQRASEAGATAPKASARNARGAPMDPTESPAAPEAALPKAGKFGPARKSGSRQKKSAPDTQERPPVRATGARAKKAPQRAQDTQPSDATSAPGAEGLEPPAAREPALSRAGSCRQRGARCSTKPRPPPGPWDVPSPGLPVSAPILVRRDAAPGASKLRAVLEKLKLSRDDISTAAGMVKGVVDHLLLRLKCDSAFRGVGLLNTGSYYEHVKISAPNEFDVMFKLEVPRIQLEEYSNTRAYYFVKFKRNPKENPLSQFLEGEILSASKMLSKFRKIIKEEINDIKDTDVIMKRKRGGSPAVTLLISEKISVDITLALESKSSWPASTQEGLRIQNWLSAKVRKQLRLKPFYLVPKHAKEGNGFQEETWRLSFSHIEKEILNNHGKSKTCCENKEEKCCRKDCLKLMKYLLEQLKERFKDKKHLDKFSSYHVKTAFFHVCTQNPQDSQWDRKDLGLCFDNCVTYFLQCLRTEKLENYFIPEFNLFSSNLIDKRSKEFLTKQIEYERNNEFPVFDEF

Row | Compound | IC50 [nM]
1 | C[C@H]1CN2CC[C@@H]1n1c(nc3cc(Cl)ccc31)O[C@H]1C[C@@H](C(=O)O)N(C1)c1nc(nc3c1oc1ccccc13)CCOCCCC2=O [Example 1.02] | 2.8
2 | O=C(O)[C@@H]1C[C@H]2CN1c1nc(nc3c1oc1ccccc13)CCOCCCC(=O)N1CCC(CC1)n1c(nc3ccc(F)cc31)O2 [Example 1.04] | 4.5
3 | C[C@H]1CN2CC[C@@H]1n1c(nc3ccccc31)O[C@H]1C[C@@H](C(=O)O)N(C1)c1nc(nc3c1oc1cc(Cl)ccc13)C(F)(F)CCCOCC2=O [Example 1.22] | 2.7
4 | C[C@H]1CN2CC[C@@H]1n1c(nc3ccccc31)O[C@H]1C[C@@H](C(=O)O)N(C1)c1nc(nc3c1oc1ccccc13)CCCCCN(C)C2=O [Example 13.01] | 34
